Measured values reported in ChEMBL document CHEMBL4052712, “Design and optimization of highly-selective, broad spectrum fungal CYP51 inhibitors” (Bioorg Med Chem Lett, 2017).

Legend:
Aromatase = molecular target: T1, Aromatase (Homo sapiens, UniProt P11511); experiment: Inhibition of CYP19 in human hepatocyte microsomes using testosterone substrate by HPLC/MS/MS method; format: ADME
T1 sequence (P11511 whole entry): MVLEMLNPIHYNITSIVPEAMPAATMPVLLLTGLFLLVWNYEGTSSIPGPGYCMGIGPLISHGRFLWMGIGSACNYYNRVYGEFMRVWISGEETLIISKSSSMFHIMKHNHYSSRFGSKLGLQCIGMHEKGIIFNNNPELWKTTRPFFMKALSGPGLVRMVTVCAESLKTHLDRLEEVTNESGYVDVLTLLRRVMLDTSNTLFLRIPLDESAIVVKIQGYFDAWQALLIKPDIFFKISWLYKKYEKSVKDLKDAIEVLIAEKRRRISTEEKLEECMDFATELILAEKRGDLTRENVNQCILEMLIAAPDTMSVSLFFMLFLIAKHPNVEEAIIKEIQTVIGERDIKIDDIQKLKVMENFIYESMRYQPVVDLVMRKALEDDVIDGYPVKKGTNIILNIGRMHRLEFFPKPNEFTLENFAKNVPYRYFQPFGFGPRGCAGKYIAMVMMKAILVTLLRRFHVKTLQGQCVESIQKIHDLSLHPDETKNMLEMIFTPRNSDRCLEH

[1] = molecular target: T2, Lanosterol 14-alpha demethylase (Aspergillus, UniProt B8NUK6+G4WW85+Q9P8R0); experiment: Binding affinity to Aspergillus fumigatus CYP51
T2 sequence (B8NUK6 whole entry): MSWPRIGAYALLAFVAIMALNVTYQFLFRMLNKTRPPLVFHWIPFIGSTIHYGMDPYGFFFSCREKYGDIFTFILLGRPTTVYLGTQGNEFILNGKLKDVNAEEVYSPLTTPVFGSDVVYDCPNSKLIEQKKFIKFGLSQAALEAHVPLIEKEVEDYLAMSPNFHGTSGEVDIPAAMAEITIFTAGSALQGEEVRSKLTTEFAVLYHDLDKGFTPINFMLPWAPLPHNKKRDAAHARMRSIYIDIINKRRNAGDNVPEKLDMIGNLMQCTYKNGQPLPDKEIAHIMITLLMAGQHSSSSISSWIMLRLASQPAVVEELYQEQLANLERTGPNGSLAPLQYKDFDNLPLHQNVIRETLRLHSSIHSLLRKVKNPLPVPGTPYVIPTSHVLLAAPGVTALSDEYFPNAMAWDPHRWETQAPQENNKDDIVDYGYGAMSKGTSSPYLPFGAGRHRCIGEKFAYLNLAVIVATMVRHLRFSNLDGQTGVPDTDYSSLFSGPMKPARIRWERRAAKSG
T2 sequence (Q9P8R0 whole entry): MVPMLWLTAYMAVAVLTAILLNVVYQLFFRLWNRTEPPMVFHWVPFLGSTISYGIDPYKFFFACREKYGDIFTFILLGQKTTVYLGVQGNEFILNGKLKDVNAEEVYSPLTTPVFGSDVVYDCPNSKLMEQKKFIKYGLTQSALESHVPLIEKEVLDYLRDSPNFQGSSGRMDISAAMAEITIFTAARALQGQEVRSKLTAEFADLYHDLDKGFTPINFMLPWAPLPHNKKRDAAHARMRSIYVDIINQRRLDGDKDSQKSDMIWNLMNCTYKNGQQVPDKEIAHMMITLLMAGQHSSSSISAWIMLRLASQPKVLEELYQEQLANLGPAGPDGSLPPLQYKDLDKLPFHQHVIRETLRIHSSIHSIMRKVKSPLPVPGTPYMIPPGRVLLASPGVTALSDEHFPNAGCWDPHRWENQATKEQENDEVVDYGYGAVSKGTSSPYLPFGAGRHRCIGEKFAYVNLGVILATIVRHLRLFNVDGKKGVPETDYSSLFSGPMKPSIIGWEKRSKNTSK
T2 sequence (G4WW85 whole entry): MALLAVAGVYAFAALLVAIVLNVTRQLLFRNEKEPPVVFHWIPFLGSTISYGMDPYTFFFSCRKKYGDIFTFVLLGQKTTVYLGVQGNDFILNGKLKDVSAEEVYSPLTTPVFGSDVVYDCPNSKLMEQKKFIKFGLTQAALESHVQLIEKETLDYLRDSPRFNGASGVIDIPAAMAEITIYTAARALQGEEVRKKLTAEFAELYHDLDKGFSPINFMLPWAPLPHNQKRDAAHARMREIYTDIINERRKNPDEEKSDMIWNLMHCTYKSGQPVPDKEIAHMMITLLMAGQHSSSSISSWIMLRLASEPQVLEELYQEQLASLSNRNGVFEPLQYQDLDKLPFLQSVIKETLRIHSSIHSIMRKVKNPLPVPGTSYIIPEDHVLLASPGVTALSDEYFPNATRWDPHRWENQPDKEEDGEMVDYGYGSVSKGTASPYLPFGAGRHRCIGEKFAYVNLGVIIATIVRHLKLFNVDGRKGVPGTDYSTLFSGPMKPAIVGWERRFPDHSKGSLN

Lung = experiment: Drug level in Swiss albino mouse lung at 5 mg/kg, po after 48 hrs assessed as relative AUC (48 hrs) level relative to plasma drug level by HPLC/MS/MS method; format: ADME, organism-based; settings: other tissue
[2] = Tmax in Swiss albino mouse at 5 mg/kg, po measured during 0.5 to 48 hrs post dose by HPLC/MS/MS method; format: ADME, organism-based; settings: in vivo

IC50 (Aromatase): > 100000 nM | Kd [1]: 13 nM | Drug uptake (Lung): 94% | Tmax [2]: 4 h
SMILES: N#Cc1ccc(COc2ccc(C#Cc3ccc(C(F)(F)C(O)(Cn4cnnn4)c4ccc(F)cc4F)nc3)cc2)cc1 (single isomer, unassigned; (+))
